Results as given in patent publication US8685929B2, “Detecting CYP24 expression level as a marker for predisposition to cancer” (The Regents of the University of California, priority 1999, dated 2014).

Experiments:
[1] = system: CYP24 gene expression in MCF7 breast cancer cells; test: RT-PCR of CYP24 gene expression in MCF7 breast cancer cells with induction by 1,25-dihydroxyvitamin D3; assay type: cell-based, human; conditions: MCF7 cells incubated with 10^-8M 1,25-dihydroxyvitamin D3 vs vehicle control (ethanol); FIG. 3A
Protocol: (§1) FIG. 3 illustrates expression of CYP24, VDR and ZNF217 genes in human breast cancer cell lines and tumors with and without induction by 1,25-dihydroxyvitamin D3 evaluated by RT-PCR. (a) Time course of induction of CYP24 gene expression in MCF7 breast cancer cells incubated with 10^−8M 1,25-dihydroxyvitamin D3 and vehicle control (ethanol, EtOH). (b) Gene expression in two breast cancer tumors, S21 and S59. (c) Gene expression in the BT474 cell line. Cells were incubated with 10^−8M 1,25-dihydroxyvitamin D3, as described in (a).
(§2) Previously, CYP24 had been discounted as a candidate oncogene because it was not found to be transcribed in the breast cancer cell line, BT474 (Collins et al. (1998) Proc. Natl. Acad. Sci. USA 95: 8703-8708). However, re-evaluation of expression of CYP24 in cell lines and tumors was warranted because of its position at the peak of the copy number profile and because of the existing knowledge of its function. Therefore we examined expression levels of CYP24 and the vitamin D receptor (VDR), which controls CYP24 expression by RT-PCR using the primers listed in Table 1. […] Furthermore, expression of CYP24 and VDR was detected in two breast tumors S21 and S59 (FIG. 3B). […] Only low level expression of VDR was found in this cell line, most likely accounting for the failure to detect expression of CYP24 in BT474 without addition of 1,25-dihydroxyvitamin-D3. […]

[2] = system: CYP24 gene expression in BT474 cell line; test: RT-PCR of CYP24 gene expression in the BT474 cell line with induction by 1,25-dihydroxyvitamin D3; assay type: cell-based, human; conditions: BT474 cells, 10^-8M 1,25-dihydroxyvitamin D3 added to the culture medium; FIG. 3C
Protocol: as §1, §2

## C=C1/C(=C\C=C2/CCC[C@]3(C)[C@@H]([C@H](C)CCCC(C)(C)O)CC[C@@H]23)C[C@@H](O)C[C@@H]1O [1,25-dihydroxyvitamin-D3]
[1]
  expression of CYP24 (RT-PCR): higher levels of expression of CYP24 were induced
[2]
  expression of CYP24 (RT-PCR): CYP24 expression was not detected without addition of 1,25-dihydroxyvitamin-D3
